Values after ≈ are worked out from the molar mass of the structure shown.
Key:
[1] = system: Becap37 (human breast cancer cell); assay: MTT solid tumor cell growth inhibition, 72 h; assay type: cell-based; settings: Homo sapiens, Becap37, 72 h; for IC50: read-out: IC50; for IC90: read-out: IC90
Method: (§1) Human solid tumor cell lines: Hep-2 ([…]), A549 (human lung cancer), CaES-17 (esophageal cancer cell), PC-3 (prostate cancer), CNE (nasopharyngeal carcinoma cell), and SK-OV-3 (ovarian cancer cell), all of which are purchased from China Center For Type Culture Collection; RKO (human colon adenocarcinoma cell), MGC 803 (human gastric cancer cell), MG63 (osteosarcoma) and U87 MG (malignant glioma cell), all of which are purchased from Fuxiang Bio-tech Co. Ltd., Shanghai, China; PANC-1 (pancreatic cancer), Huh7 (human liver cancer cell), Becap37 (human breast cancer cell), and Hela (human cervical cancer cell), all of which are donated by Cancer Research Institute of Zhejiang University, China.
(§2) Obtaining 4000 well-growing human solid tumor cells and inoculating them into wells of a 96-well cell culture plate. The culture medium is DMEM High Glucose cell culture medium containing 10% fetal bovine serum. The plate is placed in a carbon dioxide cell incubator (5% CO2) at 37° C. and incubating for 24 hours. After adding the homoharringtonine derivatives of different concentration and mixing uniformly, the plate is placed in a carbon dioxide cell incubator (5% CO2) at 37° C. and incubating for 72 hours. Then the viable cell concentration is determined by the MTT method and the cell viability (%) after drug treatment is calculated. In this experiment, the cell viability of control group (not treated with any compound) is set as 100%.

A549 (human lung cancer) = assay: MTT solid tumor cell growth inhibition, 72 h; assay type: cell-based; settings: Homo sapiens, A549, 72 h; for IC50: read-out: IC50; for IC90: read-out: IC90
Method: as §1, §2

[2] = system: RKO (human colon adenocarcinoma cell); assay: MTT solid tumor cell growth inhibition, 72 h; assay type: cell-based; settings: Homo sapiens; for IC50: read-out: IC50; for IC90: read-out: IC90
Method: as §1, §2

[3] = system: Huh7 (human liver cancer cell); assay: MTT solid tumor cell growth inhibition, 72 h; assay type: cell-based; settings: Homo sapiens, Huh-7, Huh7, 72 h; for IC50: read-out: IC50; for IC90: read-out: IC90
Method: as §1, §2

[4] = system: PANC-1 (pancreatic cancer); assay: MTT solid tumor cell growth inhibition, 72 h; assay type: cell-based, human; settings: Homo sapiens, PANC-1, 72 h; for IC50: read-out: IC50; for IC90: read-out: IC90
Method: as §1, §2

MG63 (osteosarcoma) = assay: MTT solid tumor cell growth inhibition, 72 h; assay type: cell-based, human; settings: Homo sapiens, MG 63, 72 h; for IC50: read-out: IC50; for IC90: read-out: IC90
Method: as §1, §2

[5] = system: Jurkat (acute lymphoblastic leukemia, ALL); assay: MTT leukemia cell growth inhibition, 72 h; assay type: cell-based, human; settings: Homo sapiens; for IC50: read-out: IC50; for IC90: read-out: IC90
Description: (§3) Leukemia cell lines: K562/adr (drug-resistant, chronic myeloid leukemia, CML), NB4 (acute promyelocytic leukemia, AML), Kasumi-1 (acute myeloid leukemia M2 type, AML-M2), Jurkat (acute lymphoblastic leukemia, ALL), all of which are donated by Cancer Research Institute of Zhejiang University, China; and H9 (acute lymphoblastic leukemia, ALL), which is purchased from China Center for Type Culture Collection.
(§4) Obtaining 6000 well-growing leukemia cells and inoculating them into wells of a 96-well cell culture plate. The culture medium is the 1640 cell culture medium containing 10% fetal bovine serum. After adding the homoharringtonine derivatives of different concentrations and mixing uniformly, placing the plate in a carbon dioxide cell incubator (5% CO2) at 37° C. and incubating for 72 hours. Then the viable cell concentration is determined by the MTT method. In this experiment, the cell viability in control group (not treated with any compound) is set as 100%.

[6] = system: Kasumi-1 (acute myeloid leukemia M2 type, AML-M2); assay: MTT leukemia cell growth inhibition, 72 h; assay type: cell-based, human; settings: Homo sapiens, Kasumi-1, 72 h; for IC50: read-out: IC50; for IC90: read-out: IC90
Description: as §3, §4

[7] = system: H9 (acute lymphoblastic leukemia, ALL); assay: MTT leukemia cell growth inhibition, 72 h; assay type: cell-based, human; settings: Homo sapiens, H9, 72 h; for IC50: read-out: IC50; for IC90: read-out: IC90
Description: as §3, §4

[8] = system: NB4 (acute promyelocytic leukemia, AML); assay: MTT leukemia cell growth inhibition, 72 h; assay type: cell-based, human; settings: Homo sapiens, NB4, 72 h; for IC50: read-out: IC50; for IC90: read-out: IC90
Description: as §3, §4

[9] = system: K562/adr (drug-resistant, chronic myeloid leukemia, CML); assay: MTT leukemia cell growth inhibition, 72 h; assay type: cell-based, human; settings: Homo sapiens, K562/Adr; for IC50: read-out: IC50; for IC90: read-out: IC90
Description: as §3, §4

[10] = system: RPMI8226 (multiple myeloma); assay: MTT multiple myeloma cell growth inhibition, 72 h; assay type: cell-based, human; settings: Homo sapiens, RPMI-8226, RPMI8226, 72 h; for IC50: read-out: IC50; for IC90: read-out: IC90
Method: Multiple myeloma and lymphoma cell lines: RPMI8226 (multiple myeloma), purchased from Fuxiang Bio-tech Co. Ltd., Shanghai, China.
Obtaining 6000 well-growing leukemia cells and inoculating them into wells of a 96-well cell culture plate. The culture medium is the 1640 cell culture medium containing 10% fetal bovine serum. After adding the homoharringtonine derivatives of different concentrations and mixing uniformly, placing the plate in a carbon dioxide cell incubator (5% CO2) at 37° C. and incubating for 72 hours. Then the viable cell concentration is determined by the MTT method.

[11] = system: MGC 803 (human gastric cancer cell); assay: MTT solid tumor cell growth inhibition, 72 h; assay type: cell-based; settings: Homo sapiens, MGC 803, 72 h; for IC50: read-out: IC50; for IC90: read-out: IC90
Method: as §1, §2

Structure (SMILES)	IC50 [1] [µg/mL]	IC90 [1] [µg/mL]	IC50 (A549 (human lung cancer)) [µg/mL]	IC90 (A549 (human lung cancer)) [µg/mL]	IC50 [3] [µg/mL]	IC90 [3] [µg/mL]	IC50 [4] [µg/mL]	IC90 [4] [µg/mL]	IC50 (MG63 (osteosarcoma)) [µg/mL]	IC90 (MG63 (osteosarcoma)) [µg/mL]	IC50 [5] [µg/mL]	IC90 [5] [µg/mL]	IC50 [6] [µg/mL]	IC90 [6] [µg/mL]	IC50 [7] [µg/mL]	IC90 [7] [µg/mL]	IC50 [8] [µg/mL]	IC90 [8] [µg/mL]	IC50 [9] [µg/mL]	IC90 [9] [µg/mL]	further results
COC1=C[C@]23CCCN2CCc2cc4c(cc2[C@@H]3[C@@H]1OC(=O)[C@@](O)(CCCC(C)(C)O)CC(=O)Nc1nccs1)OCO4 [BS-HH-008]	> 16	> 16	16 (≈ 26.1 µM)	> 16	11.2 (≈ 18.3 µM)	> 16	> 16	> 16	15.5 (≈ 25.3 µM)	> 16	4.69 (≈ 7.64 µM)	16 (≈ 26.1 µM)	5 (≈ 8.15 µM)	> 16	13.4 (≈ 21.9 µM)	> 16	5.62 (≈ 9.16 µM)	12.8 (≈ 20.9 µM)	> 16	> 16	IC50 [2]: 4.44 µg/mL (≈ 7.23 µM); IC90 [2]: 16 µg/mL (≈ 26.1 µM); IC50 [10]: 11 µg/mL (≈ 17.9 µM); IC90 [10]: > 16 µg/mL
COC1=C[C@]23CCCN2CCc2cc4c(cc2[C@@H]3[C@@H]1OC(=O)[C@@](O)(CCCC(C)(C)O)CC(=O)N1CCN(C)CC1)OCO4 [BS-HH-009]	3.09 (≈ 5.03 µM)	> 16	10.2 (≈ 16.7 µM)	> 16	6.7 (≈ 10.9 µM)	> 16	16 (≈ 26.1 µM)	> 16	1.72 (≈ 2.8 µM)	> 16	3 (≈ 4.89 µM)	> 16	8.54 (≈ 13.9 µM)	> 16	8 (≈ 13 µM)	> 16	2.97 (≈ 4.84 µM)	11.2 (≈ 18.2 µM)	> 16	> 16	IC50 [2]: 1.46 µg/mL (≈ 2.38 µM); IC90 [2]: 5.72 µg/mL (≈ 9.32 µM); IC50 [10]: 3.6 µg/mL (≈ 5.87 µM); IC90 [10]: 16 µg/mL (≈ 26.1 µM)
COC1=C[C@]23CCCN2CCc2cc4c(cc2[C@@H]3[C@@H]1OC(=O)[C@@](O)(CCCC(C)(C)O)CC(=O)N1CCOCC1)OCO4 [BS-HH-011]	11.3 (≈ 18.8 µM)	> 16	> 16	> 16	16 (≈ 26.6 µM)	> 16	> 16	> 16	6.33 (≈ 10.5 µM)	> 16	6.7 (≈ 11.2 µM)	> 16	8.28 (≈ 13.8 µM)	> 16	> 16	> 16	3.22 (≈ 5.36 µM)	9.54 (≈ 15.9 µM)	> 16	> 16	IC50 [2]: 4 µg/mL (≈ 6.66 µM); IC90 [2]: > 16 µg/mL; IC50 [10]: 6.71 µg/mL (≈ 11.2 µM); IC90 [10]: > 16 µg/mL
COC1=C[C@]23CCCN2CCc2cc4c(cc2[C@@H]3[C@@H]1OC(=O)[C@@](O)(CCCC(C)(C)O)CC(=O)N1CCSCC1)OCO4 [BS-HH-014]	6.89 (≈ 11.2 µM)	> 16	9.79 (≈ 15.9 µM)	> 16	4 (≈ 6.49 µM)	> 16	8 (≈ 13 µM)	> 16	6.24 (≈ 10.1 µM)	> 16	2 (≈ 3.24 µM)	> 16	1.33 (≈ 2.16 µM)	8.61 (≈ 14 µM)	8.25 (≈ 13.4 µM)	> 16	1.29 (≈ 2.09 µM)	3.7 (≈ 6 µM)	> 16	> 16	IC50 [11]: 2.92 µg/mL (≈ 4.73 µM); IC90 [11]: 15.5 µg/mL (≈ 25.1 µM); IC50 [2]: 1.25 µg/mL (≈ 2.03 µM); IC90 [2]: 5.36 µg/mL (≈ 8.69 µM); IC50 [10]: 2.43 µg/mL (≈ 3.94 µM); IC90 [10]: 16 µg/mL (≈ 25.9 µM)
COC1=C[C@]23CCCN2CCc2cc4c(cc2[C@@H]3[C@@H]1OC(=O)[C@@](O)(CCCC(C)(C)O)CC(=O)N1CC=CC1)OCO4 [BS-HH-018]	1.7 (≈ 2.92 µM)	> 16	4.09 (≈ 7.02 µM)	> 16	2.5 (≈ 4.29 µM)	> 16	2.89 (≈ 4.96 µM)	> 16	0.96 (≈ 1.65 µM)	> 16	0.88 (≈ 1.51 µM)	16 (≈ 27.5 µM)	0.47 (≈ 0.807 µM)	2.32 (≈ 3.98 µM)	2.69 (≈ 4.62 µM)	> 16	0.38 (≈ 0.652 µM)	1 (≈ 1.72 µM)	7.77 (≈ 13.3 µM)	> 16	IC50 [11]: 0.94 µg/mL (≈ 1.61 µM); IC90 [11]: 4.96 µg/mL (≈ 8.51 µM); IC50 [2]: 0.34 µg/mL (≈ 0.583 µM); IC90 [2]: 1.5 µg/mL (≈ 2.57 µM); IC50 [10]: 0.6 µg/mL (≈ 1.03 µM); IC90 [10]: 5.66 µg/mL (≈ 9.71 µM)
COC1=C[C@]23CCCN2CCc2cc4c(cc2[C@@H]3[C@@H]1OC(=O)[C@@](O)(CCCC(C)(C)O)CC(=O)N1CCCCC1)OCO4 [BS-HH-051]	1.99 (≈ 3.32 µM)	> 16	6.96 (≈ 11.6 µM)	> 16	> 16	> 16	6.84 (≈ 11.4 µM)	> 16	2.72 (≈ 4.54 µM)	> 16	1.3 (≈ 2.17 µM)	> 16	2 (≈ 3.34 µM)	16 (≈ 26.7 µM)	7.26 (≈ 12.1 µM)	> 16	1.5 (≈ 2.51 µM)	16 (≈ 26.7 µM)	> 16	> 16	IC50 [11]: 1.9 µg/mL (≈ 3.17 µM); IC90 [11]: 26.7 µg/mL (≈ 44.6 µM); IC50 [10]: 1.7 µg/mL (≈ 2.84 µM); IC90 [10]: 16 µg/mL (≈ 26.7 µM)

— patent publication US9676789B2, “Aminated derivative of homoharringtonine, preparation method therefor, and application thereof” (HANGZHOU BENSHENG PHARMACEUTICAL CO., LTD., priority 2011, dated 2017)
